Results published in publication PMC6651387, “Fine-Tuning the Activation Mode of an 1,3-Indandione-Based Ruthenium(II)-Cymene Half-Sandwich Complex by Variation of Its Leaving Group” (Molecules, 2019).

Experiments:
[1] = test system: HCT116 (colon cancer) cells; experiment: MTT antiproliferative assay, HCT116; format: cell-based, human; details: exposure time 96 h, means ± standard deviations
Method: (§1) CH1/PA-1 (ovarian teratocarcinoma) cells were a generous gift from Lloyd R. Kelland (CRC Centre for Cancer Therapeutics, Institute of Cancer Research, Sutton, UK). A549 (non-small cell lung cancer), SW480, and HCT116 (both colon cancer) cells were kindly provided by the Institute of Cancer Research, Department of Medicine I, Medical University of Vienna, Austria. All cell lines were grown as monolayer cultures in Eagle’s MEM supplemented with L-glutamine (4 mM), sodium pyruvate (1 mM) and 1% (v/v) non-essential amino acid solution (all from Sigma-Aldrich) and 10% (v/v) heat-inactivated fetal calf serum (FCS, BioWest) in 75-cm^2 flasks (Starlab) at 37 °C under a humidified atmosphere containing 5% CO2 in air. […] After 24 h, test compounds were dissolved in DMSO (Fisher Scientific), serially diluted in complete MEM not to exceed a final DMSO content of 0.5% (v/v) and added in 100 μL per well. After 96 h, the drug-containing medium was replaced with 100 µL of RPMI 1640/MTT mixture, i. e., 6 parts of RPMI 1640 medium (Sigma-Aldrich; supplemented with 10% heat-inactivated fetal bovine serum and 4 mM L-glutamine), 1 part of MTT solution in phosphate-buffered saline (5 mg/mL; both from Sigma-Aldrich). After incubation for 4 h, the MTT-containing medium was replaced with 150 μL DMSO per well to dissolve the formazan product formed by viable cells. Optical densities at 550 nm (and at the reference wavelength of 690 nm) were measured with a microplate reader (ELx808, Bio-Tek). The IC50 values relative to untreated controls were interpolated from concentration–effect curves. At least three independent experiments were performed, each with triplicates per concentration level.

[2] = test system: SW480 (colon cancer) cells; experiment: MTT antiproliferative assay, SW480; format: cell-based, human; details: exposure time 96 h, means ± standard deviations
Method: as §1

[3] = Lipophilicity by RP-UHPLC capacity factors (logkw, Φ0); format: physicochemical; details: for Intercept logkw: RP-UHPLC, MeOH/0.1% formic acid in water, 25 °C, logk extrapolated to 100% water; for Φ0: percentage of methanol in the eluent at which logk is zero, Φ0 = −logkw/S; for Slope S: slope of logk against % organic eluent (MeOH)
Description: It stands to reason that the higher the lipophilicity, the higher the cell accumulation; as far as passive diffusion is concerned, the higher efficiency with which normal cell function is compromised. As a consequence, lipophilicity is an important factor in drug development, described by the partition coefficient logP, which is routinely determined by the distribution of a compound in 1-octanol/water. However, 1-octanol, a solvent said to closely mimic the solubilizing behavior of cell membranes, forms emulsions with water. Additionally, the shake-flask method, seemingly easy, requires long sample preparation, has a low sample throughput, and lacks reproducibility, as it hinges on exact temperature control and consistent equilibration time allotted for every analyte. The time-consuming nature of this method may also lead to decomposition of the analyte. A concentration-, flow rate-, and column length-independent method is the determination of the capacity factor (k) via HPLC. The capacity factor is a measure for the equilibrium concentration between a polar phase (eluent) and an apolar phase (C18 column coating) and higher resemblance to the partition coefficient in […]. […] The percentage of methanol in the eluent at which logk is equal to zero is Φ0 [27, 28, 29].
The capacity factors k were determined with the use of an RP-UHPLC. The necessary chromatograms were recorded with a Dionex UltiMate 3000 RS UHPLC system (Thermo Fisher Scientific, Bedford, MA, USA) controlled by the Dionex Chromeleon 7.2 software. […] The capacity factors were then calculated as logk = log[(tR − t0)/t0], where tR and t0 are the retention times of the analyte and the dead time marker, respectively, at the respective MeOH:0.1% FA in water ratio. Every retention time was determined in isocratic mode for the different eluent ratios to obtain capacity factors in the linear range (−0.5 ≤ logk ≤ 1.5) in triplicate. A plot of logk against the % of the organic eluent yielded logkw (intercept) and S (slope). Φ0, the factor most closely resembling logP, was then determined as follows: Φ0 = −logkw/S [28].

[4] = test system: CH1/PA-1 (ovarian teratocarcinoma) cells; experiment: MTT antiproliferative assay, CH1/PA-1; format: cell-based, human; details: exposure time 96 h, means ± standard deviations
Method: CH1/PA-1 (ovarian teratocarcinoma) cells were a generous gift from Lloyd R. Kelland (CRC Centre for Cancer Therapeutics, Institute of Cancer Research, Sutton, UK). A549 (non-small cell lung cancer), SW480, and HCT116 (both colon cancer) cells were kindly provided by the Institute of Cancer Research, Department of Medicine I, Medical University of Vienna, Austria. All cell lines were grown as monolayer cultures in Eagle’s MEM supplemented with L-glutamine (4 mM), sodium pyruvate (1 mM) and 1% (v/v) non-essential amino acid solution (all from Sigma-Aldrich) and 10% (v/v) heat-inactivated fetal calf serum (FCS, BioWest) in 75-cm^2 flasks (Starlab) at 37 °C under a humidified atmosphere containing 5% CO2 in air.
Antiproliferative activity of the compounds was determined with the colorimetric MTT assay (MTT = 3-(4,5-dimethyl-2-thiazolyl)-2,5-diphenyl-2H-tetrazolium bromide). CH1/PA-1, HCT116, SW480, and A549 cells with cell numbers of 1 × 10^3, 1.5 × 10^3, 2 × 10^3, and 3 × 10^3, respectively, were seeded in 100 μL per well into 96-well microculture plates (Starlab). After 24 h, test compounds were dissolved in DMSO (Fisher Scientific), serially diluted in complete MEM not to exceed a final DMSO content of 0.5% (v/v) and added in 100 μL per well. After 96 h, the drug-containing medium was replaced with 100 µL of RPMI 1640/MTT mixture, i. e., 6 parts of RPMI 1640 medium (Sigma-Aldrich; supplemented with 10% heat-inactivated fetal bovine serum and 4 mM L-glutamine), 1 part of MTT solution in phosphate-buffered saline (5 mg/mL; both from Sigma-Aldrich). After incubation for 4 h, the MTT-containing medium was replaced with 150 μL DMSO per well to dissolve the formazan product formed by viable cells. Optical densities at 550 nm (and at the reference wavelength of 690 nm) were measured with a microplate reader (ELx808, Bio-Tek). The IC50 values relative to untreated controls were interpolated from concentration–effect curves. At least three independent experiments were performed, each with triplicates per concentration level.

[5] = test system: A549 (non-small cell lung cancer) cells; experiment: MTT antiproliferative assay, A549; format: cell-based, human; details: exposure time 96 h, means ± standard deviations
Method: as §1

Cc1ccc(C(C)C)cc1.O=C1C2=C(NCc3ccccc3)[O][Ru-]([Cl])[O+]=C2c2ccccc21 [1a]
IC50 [1]: 24.8 ± 6.4 µM | IC50 [2]: 12.4 ± 0.4 µM | Intercept logkw [3]: 5.41 | Φ0 [3]: 63.19 | Slope S [3]: −0.0855 | IC50 [4]: 12.5 ± 4.4 µM | IC50 [5]: 23.4 ± 2.5 µM

Cc1ccc(C(C)C)cc1.Cn1ccnc1.F[P-](F)(F)(F)(F)F.O=C1C(=C(NCc2ccccc2)[O][Ru+])C(=O)c2ccccc21 [1b]
IC50 [1]: 24.6 ± 8.5 µM | IC50 [2]: 10.9 ± 1 µM | Intercept logkw [3]: 5.49 | Φ0 [3]: 61.84 | Slope S [3]: −0.0888 | IC50 [4]: 16.2 ± 2.6 µM | IC50 [5]: 21.4 ± 1.7 µM

Cc1ccc(C(C)C)cc1.F[P-](F)(F)(F)(F)F.O=C1C2=C(NCc3ccccc3)[O][Ru-]([n+]3ccc[nH]3)[O+]=C2c2ccccc21 [1c]
IC50 [1]: 22.4 ± 6 µM | IC50 [2]: 15.2 ± 0.6 µM | Intercept logkw [3]: 5.36 | Φ0 [3]: 63.72 | Slope S [3]: −0.0841 | IC50 [4]: 11.5 ± 2 µM | IC50 [5]: 22.9 ± 3.5 µM

Cc1ccc(C(C)C)cc1.F[P-](F)(F)(F)(F)F.O=C1C2=C(NCc3ccccc3)[O][Ru-]([n+]3c[nH]c4ccccc43)[O+]=C2c2ccccc21 [1d]
IC50 [1]: 18.8 ± 5.8 µM | IC50 [2]: 8.8 ± 1.3 µM | Intercept logkw [3]: 5.55 | Φ0 [3]: 65.87 | Slope S [3]: −0.0843 | IC50 [4]: 10.6 ± 1.8 µM | IC50 [5]: 19 ± 0.8 µM

Cc1ccc(C(C)C)cc1.F[P-](F)(F)(F)(F)F.O=C1C2=C(NCc3ccccc3)[O][Ru-]([n+]3cc4ccccc4[nH]3)[O+]=C2c2ccccc21 [1e]
IC50 [1]: 25.1 ± 7.1 µM | IC50 [2]: 16.8 ± 3.1 µM | Intercept logkw [3]: 5.94 | Φ0 [3]: 68.88 | Slope S [3]: −0.0863 | IC50 [4]: 11 ± 3 µM | IC50 [5]: 23.7 ± 6.4 µM

Cc1ccc(C(C)C)cc1.F[P-](F)(F)(F)(F)F.O=C1C2=C(NCc3ccccc3)[O][Ru-]([NH+]3CCOCC3)[O+]=C2c2ccccc21 [1g]
IC50 [1]: 23.8 ± 7.6 µM | IC50 [2]: 9.2 ± 1.8 µM | Intercept logkw [3]: 5.14 | Φ0 [3]: 59.73 | Slope S [3]: –0.0860 | IC50 [4]: 12.2 ± 2.7 µM | IC50 [5]: 18.9 ± 1.4 µM
